Experimental data published in article PMC2856764 (Human immunology, 2010).
Ends that are not written are not given here.

What was measured:
Test in all cases: biochemical
Type in all cases: binding
HLA-B*5101 = HLA-B*5101 (Homo sapiens, UniProt P01889, A329T/A93T/A95T/C349S/D138N/D201E/D98Y/E187L/E204Q/E69T/G107R/I218V/K202T/L105A/L119W/N104I/Q94N/R106L/R155S/R180L/S101N/S121T/S35A/S48A/V306I/V36M/Y195H/Y91F)
HLA-B*5301 = HLA-B*5301 (Homo sapiens, UniProt P01889, A329T/A93T/A95T/C349S/D201E/D98Y/E176V/E187L/E204Q/E69T/G107R/I218V/K202T/L105A/L119I/N104I/Q94N/R106L/R155S/R180L/S101N/S121R/S35A/S48A/T118I/V127L/V306I/V36M/Y140S/Y91F)
HLA-B*0702 = HLA-B*0702 (Homo sapiens, UniProt P01889)
HLA-B*3501 = HLA-B*3501 (Homo sapiens, UniProt P01889, A329T/A93T/A95T/C349S/D201E/D98Y/E176V/E187L/E204Q/E69T/I218V/K202T/L119I/Q94N/R155S/R180L/S121R/S35A/S48A/T118I/V127L/V306I/V36M/Y140S/Y91F)
HLA-B*5401 = HLA-B*5401 (Homo sapiens, UniProt P01889, A329T/C349S/D138N/D201E/E176V/E187T/E204Q/E69G/I76V/K202T/L119W/R155S/R180L/S121T/S35A/S48A/V127L/V306I/V36M/Y140L)

LPRRSGAAGA [NP.172]
IC50 (HLA-B*5101): > 10000 nM
IC50 (HLA-B*5301): > 10000 nM
IC50 (HLA-B*0702): 2 nM
IC50 (HLA-B*3501): > 10000 nM
IC50 (HLA-B*5401): 47 nM
